From article PMC9785492 (Viruses, 2022)
Like-named read-outs stand apart in the source and are kept apart here.

Tests used:
[1] = system: influenza A virus (A/Puerto Rico/8/34); conditions: for IC50: read-out: IC50, Inhibition of A/Puerto Rico/8/34 Infection, MDCK cells, 100 TCID50, MTT-based, 48 h post-infection
Cytotoxicity MTT assay = conditions: dog, MDCK cells
[2] = system: influenza A virus (A/Puerto Rico/8/34); test: microbe, parasite or virus in culture; conditions: MDCK, read-out: IC50, Inhibition of A/Puerto Rico/8/34 Infection
[3] = system: IAV proteins NP and PB2, NP mRNA; format: cell-based; conditions: MDCK cells
[4] = system: clathrin-associated uptake of transferrin in A549 cells; test: Transferrin absorption test; conditions: pretreated 3 h, transferrin 15 µg/mL 30 min, Western blotting
caveolin-1 = format: cell-based, human
[5] = system: IAV-induced Ca2+ influx in A549 cells; test: Intracellular Ca2+ level during IAV infection (BBcellProbeTMF3); format: cell-based, human; conditions: A/WSN/33
[6] = system: clathrin-mediated endocytosis in A549 cells; test: Fluorescence confocal assay, Tf-568 uptake; format: cell-based, human; conditions: 20 μM, 3 h pre-treatment
[7] = system: influenza viral polymerase activity; format: cell-based, Influenza A virus
[8] = system: H5N1 pseudovirus A/Anhui/1/2005; test: organism not typed; format: cell-based, H5N1 IAV
[9] = system: vesicular stomatitis virus G (VSV-G) PsV; format: cell-based
[10] = system: H5N1 pseudovirus A/Xinjiang/1/2006; test: organism not typed; format: cell-based, H5N1 IAV
[11] = system: caveolin-mediated endocytosis in A549 cells; format: cell-based, human
A/WSN/33 (H1N1) = test: microbe, parasite or virus in culture; format: cell-based, Influenza A virus (H1N1); conditions: Influenza A virus, MDCK
[12] = system: H5N1 pseudovirus A/Qinghai/59/2005; test: organism not typed; format: cell-based, H5N1 IAV
A/Aichi/2/68 (H3N2) = test: microbe, parasite or virus in culture; format: cell-based; conditions: Influenza A virus, H3N2, MDCK
[13] = system: IAV replication in A549 cells; format: cell-based; conditions: viral protein and gene
A/FM-1/1/47 (H1N1) = test: microbe, parasite or virus in culture; format: cell-based; conditions: Influenza A virus, H1N1, MDCK
[14] = system: H5N1 pseudovirus A/Hong Kong/156/1997; test: organism not typed; format: cell-based, H5N1 IAV
in vitro = conditions: dog

**Q.** With `CC(=O)N[C@H]1[C@H]([C@H](O)[C@H](O)CO)OC(C(=O)O)=C[C@@H]1N=C(N)N` [Zanamivir] as the compound, how does the “SI (CC50/ IC50)” value [1] read?
**A.** >158.73

**Q.** And the CC50 at 48 h (Cytotoxicity MTT assay)?
**A.** > 0.2 µM

**Q.** And the IC50 [2]?
**A.** 0.00126 ± 0.0003 µM

**Q.** With `COC(=O)C1=C(C)NC(C)=C(C(=O)OCC(C)C)C1c1ccccc1[N+](=O)[O-]` (centres unmarked) [Nisoldipine] as the compound, how does the “expression of IAV proteins NP and PB2” value ([3]; Western blotting, dose-dependent) read?
**A.** significantly inhibited

**Q.** What about the “NP mRNA expression” value ([3]; qRT-PCR) of the same compound?
**A.** decreased

**Q.** And the internalization of transferrin [4]?
**A.** markedly reduced

**Q.** And the “expression of caveolin-1” value (caveolin-1)?
**A.** reduce the expression of caveolin-1

**Q.** What about the “IAV-induced Ca2+ influx” value [5] of the same compound?
**A.** inhibited

**Q.** What about the IC50 [1] of the same compound?
**A.** 4.74 ± 0.76 µM

**Q.** And the “transferrin (Tf-568) uptake” value [6]?
**A.** decreased

**Q.** What about the “influenza viral polymerase activity” value [7] of the same compound?
**A.** did not affect

**Q.** And the IC50 [8]?
**A.** 2.59 ± 0.46 µM

**Q.** And the “inhibition of VSV-G PsV infection” value [9]?
**A.** much less efficiency

**Q.** And the IC50 [10]?
**A.** 3.87 ± 0.51 µM

**Q.** And the CC50 at 48 h (Cytotoxicity MTT assay)?
**A.** > 200 µM

**Q.** And the “CTB-FITC endocytosis (immunostaining)” value [11]?
**A.** less immunostaining

**Q.** What about the IC50 (A/WSN/33 (H1N1)) of the same compound?
**A.** 4.47 ± 0.25 µM

**Q.** And the IC50 [12]?
**A.** 5.84 ± 0.64 µM

**Q.** And the IC50 (A/Aichi/2/68 (H3N2))?
**A.** 5.68 ± 0.61 µM

**Q.** And the “IAV replication in A549 cells” value [13]?
**A.** interfered with IAV replication

**Q.** What about the IC50 (A/FM-1/1/47 (H1N1)) of the same compound?
**A.** 6.96 ± 0.78 µM

**Q.** What about the IC50 [14] of the same compound?
**A.** 4.47 ± 0.47 µM

**Q.** What does the source list for `COCCOC(=O)C1=C(C)NC(C)=C(C(=O)OC/C=C/c2ccccc2)C1c1cccc([N+](=O)[O-])c1` (centres unmarked) [Cilnidipine]?
**A.** SI (CC50/ IC50) ([1]; A/Puerto Rico/8/34): >14.02; CC50 at 48 h (in vitro): > 200 µM; IC50 ([2]; 48 h): 14.3 ± 2.66 µM

**Q.** For methyl-β-cyclodextrin [MβCD], which “CTB-FITC endocytosis (immunostaining)” value [11] is on record?
**A.** less immunostaining

**Q.** With `CCOC(=O)C1=C(C)NC(C)=C(C(=O)OC)C1c1cccc([N+](=O)[O-])c1` (centres unmarked) [Nitrendipine] as the compound, how does the “SI (CC50/ IC50)” value [1] read?
**A.** 23.56

**Q.** And the IC50 [1]?
**A.** 7.26 ± 1.89 µM

**Q.** And the CC50 at 48 h (Cytotoxicity MTT assay)?
**A.** 171 ± 14.1 µM

**Q.** What does the source list for `COCCOC(=O)C1=C(C)NC(C)=C(C(=O)OC(C)C)C1c1cccc([N+](=O)[O-])c1` (centres unmarked) [Nimodipine]?
**A.** SI (CC50/ IC50) [1]: >15.58; IC50 [1]: 12.8 ± 1.72 µM; CC50 at 48 h (Cytotoxicity MTT assay): > 200 µM
